These results are taken from US20240228488A1 (TAKEDA PHARMACEUTICAL COMPANY LIMITED, priority 2021, published 2024).

pEC50: −log10 of the molar value.

For assay [1], the target named is human activated kallikrein enzyme (Homo sapiens, UniProt P03952). Nature of the assay: Plasma kallikrein inhibition, fluorogenic PFR-AMC substrate, 500 pM activated kallikrein format. Type of assay: biochemical. Conditions: 500 pM activated kallikrein, 300 uM PFR-AMC, 30 min preincubation, 10 min reaction; read-out: Primary Dose Response Assay: Average EC50. A digest of the protocol:
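Fluorogenic readout (ex 380 / em 460 nm) after 10 min room-temperature reaction with 300 uM Pro-Phe-Arg-AMC substrate, following 30 min preincubation of inhibitors with 500 pM enzyme. Buffer: Tris pH 7.5, EDTA, NaCl, PEG-400, Triton X-100. Values given as EC50 ranges.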

The next assay addresses T1, plasma kallikrein (Homo sapiens, UniProt P03952).
T1 construct: from tissue
The experiment in a line: Neat human plasma assay, FXIIa contact pathway-activated, PFR-AMC substrate. Type of assay: biochemical. Conditions: citrated human plasma 78% final, 10 nM human FXIIa, 100 μM PFR-AMC; read-out: Human Plasma Assay: IC90. An outline of the steps:
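Compound inhibition of plasma kallikrein measured as PFR-AMC (100 μM) cleavage rate over 5 min at room temperature in 78% citrated human plasma activated with 10 nM FXIIa (Tris pH 7.5 buffer). IC50/IC90 from 4-parameter fit of rate versus inhibitor concentration.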

T1 sequence (P03952 391-638 limits assumed): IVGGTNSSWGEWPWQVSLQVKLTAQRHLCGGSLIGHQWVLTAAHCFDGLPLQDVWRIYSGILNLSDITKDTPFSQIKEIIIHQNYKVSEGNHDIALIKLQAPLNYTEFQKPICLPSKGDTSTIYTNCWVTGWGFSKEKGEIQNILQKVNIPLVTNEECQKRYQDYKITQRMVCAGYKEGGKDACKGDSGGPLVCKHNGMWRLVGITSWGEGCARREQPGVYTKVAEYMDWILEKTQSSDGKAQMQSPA
T1 sequence (P03952 20-390 partner limits assumed): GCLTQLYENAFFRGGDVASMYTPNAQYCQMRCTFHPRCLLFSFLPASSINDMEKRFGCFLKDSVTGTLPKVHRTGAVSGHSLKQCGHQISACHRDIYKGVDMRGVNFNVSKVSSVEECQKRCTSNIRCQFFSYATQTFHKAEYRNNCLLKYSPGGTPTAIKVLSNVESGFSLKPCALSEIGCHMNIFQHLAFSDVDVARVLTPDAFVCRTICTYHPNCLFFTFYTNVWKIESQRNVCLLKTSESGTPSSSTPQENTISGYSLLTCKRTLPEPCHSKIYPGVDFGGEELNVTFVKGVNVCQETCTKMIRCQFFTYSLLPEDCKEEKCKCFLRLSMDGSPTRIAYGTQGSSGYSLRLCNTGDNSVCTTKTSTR
Sequence of human activated kallikrein enzyme (P03952 391-638 limits assumed): as the sequence (P03952 391-638 limits assumed) above
Sequence of human activated kallikrein enzyme (P03952 20-390 partner limits assumed): as the sequence (P03952 20-390 partner limits assumed) above

In the case of `Cc1ccnc([C@H]2C[C@@H]2C(=O)Nc2cc(NC(C)c3cn4cc(C5CC5)cc(N5CC(=O)N(C)C5=O)c4n3)nc(C)n2)n1` (stereo partly drawn) [Example 454, (1S,2S)—N-(6-((1-(6-cyclopropyl-8-(3-methyl-2,4-dioxoimidazolidin-1-yl)imidazo[1,2-a]pyridin-2-yl)ethyl)amino)-2-methylpyrimidin-4-yl)-2-(4-methylpyrimidin-2-yl)cyclopropane-1-carboxamide], the negative logarithm of the EC50 (pEC50) in assay [1] was greater than 9.00. Further, the concentration for an effect of 90% (IC90) at plasma kallikrein fell in the range of 400 to 1500 nM.

For the compound `Cc1ccnc([C@H]2C[C@@H]2C(=O)Nc2cc(NC(C)c3cn4cc(C5CC5)cc(N5CC(=O)N(CCO)C5=O)c4n3)nc(C3CC3)n2)n1` (stereo partly drawn) [Example 460, (1S,2S)—N-(2-cyclopropyl-6-((1-(6-cyclopropyl-8-(3-(2-hydroxyethyl)-2,4-dioxoimidazolidin-1-yl)imidazo[1,2-a]pyridin-2-yl)ethyl)amino)pyrimidin-4-yl)-2-(4-methylpyrimidin-2-yl)cyclopropane-1-carboxamide], the negative logarithm of the EC50 (pEC50) in assay [1] is 8.00 to 9.00. Further, the concentration for an effect of 90% (IC90) on plasma kallikrein was in the range of 1500 to 10000 nM.

Turning to `Cc1ccnc([C@H]2C[C@@H]2C(=O)Nc2cc(N(C)Cc3cn4cc(C5CC5)cc(N5CC(=O)N(CCO)C5=O)c4n3)ncn2)n1` [Example 462, (1S,2S)-N-(6-(((6-cyclopropyl-8-(3-(2-hydroxyethyl)-2,4-dioxoimidazolidin-1-yl)imidazo[1,2-a]pyridin-2-yl)methyl)(methyl)amino)pyrimidin-4-yl)-2-(4-methylpyrimidin-2-yl)cyclopropane-1-carboxamide], the pEC50 in assay [1] is greater than 9.00. The IC90 at plasma kallikrein was less than 400 nM.

For the compound `O=C(Nc1cc(NCc2cn3cc(C4CC4)cc(N4CC(=O)N(CCO)C4=O)c3n2)ncn1)[C@H]1C[C@@H]1c1cccc(Cl)c1` [Example 463, (1S,2S)-2-(3-chlorophenyl)-N-(6-(((6-cyclopropyl-8-(3-(2-hydroxyethyl)-2,4-dioxoimidazolidin-1-yl)imidazo[1,2-a]pyridin-2-yl)methyl)amino)pyrimidin-4-yl)cyclopropane-1-carboxamide], the pEC50 in assay [1] was greater than 9.00. Besides, at plasma kallikrein, the 90% effect concentration (IC90) was in the range of 400 to 1500 nM.

For `Cc1ccnc([C@H]2C[C@@H]2C(=O)Nc2cc(NCc3cn4cc(C5CC5)cc(N5CC(=O)N(CCO)C5=O)c4n3)ncn2)n1` [Example 464, (1S,2S)-N-(6-(((6-cyclopropyl-8-(3-(2-hydroxyethyl)-2,4-dioxoimidazolidin-1-yl)imidazo[1,2-a]pyridin-2-yl)methyl)amino)pyrimidin-4-yl)-2-(4-methylpyrimidin-2-yl)cyclopropane-1-carboxamide], the pEC50 in assay [1] is greater than 9.00. The concentration for an effect of 90% (IC90) at plasma kallikrein is less than 400 nM.

With `Cc1ccnc([C@H]2C[C@@H]2C(=O)Nc2cc(NCc3cn4cc(C5CC5)cc(N5CC(=O)N(CC(=O)O)C5=O)c4n3)ncn2)n1` [Example 465], in assay [1], the pEC50 was greater than 9.00. Further, the IC90 at plasma kallikrein lay in the range of 400 to 1500 nM.

Turning to `Cc1ccnc([C@H]2C[C@@H]2C(=O)Nc2cc(NCc3cn4cc(C5CC5)cc(N5CC(=O)N(COP(=O)(O)O)C5=O)c4n3)ncn2)n1` [Example 466, (3-(6-cyclopropyl-2-(((6-((1S,2S)-2-(4-methylpyrimidin-2-yl)cyclopropane-1-carboxamido)pyrimidin-4-yl)amino)methyl)imidazo[1,2-a]pyridin-8-yl)-2,5-dioxoimidazolidin-1-yl)methyl dihydrogen phosphate], the pEC50 in assay [1] was greater than 9.00. Moreover, on plasma kallikrein, the IC90 is 1500 to 10000 nM.

With `O=C1CN(c2cc(C3CC3)cn3cc([C@H]4C[C@H](O)CN4c4cc(NC(=O)[C@H]5C[C@@H]5c5cc(Cl)ccn5)ncn4)nc23)C(=O)N1` [Example 475, (1S,2S)-2-(4-chloropyridin-2-yl)-N-(6-((2R,4S)-2-(6-cyclopropyl-8-(2,4-dioxoimidazolidin-1-yl)imidazo[1,2-a]pyridin-2-yl)-4-hydroxypyrrolidin-1-yl)pyrimidin-4-yl)cyclopropane-1-carboxamide], the negative logarithm of the EC50 (pEC50) in assay [1] was greater than 9.00. The concentration for an effect of 90% (IC90) on plasma kallikrein is less than 400 nM.

For the compound `CN1C(=O)CN(c2cc(C3CC3)cn3cc([C@H]4C[C@H](O)CN4c4cc(NC(=O)[C@H]5C[C@@H]5c5cc(Cl)ccn5)ncn4)nc23)C1=O` [Example 478, (1S,2S)-2-(4-chloropyridin-2-yl)-N-(6-((2R,4S)-2-(6-cyclopropyl-8-(3-methyl-2,4-dioxoimidazolidin-1-yl)imidazo[1,2-a]pyridin-2-yl)-4-hydroxypyrrolidin-1-yl)pyrimidin-4-yl)cyclopropane-1-carboxamide], the pEC50 in assay [1] is greater than 9.00. In addition, the concentration for an effect of 90% (IC90) on plasma kallikrein lay within 400 to 1500 nM.

In the case of `O=C(Nc1cc(N2C[C@@H](O)C[C@@H]2c2cn3cc(C4CC4)cc(N4CCOC4=O)c3n2)ncn1)[C@H]1C[C@@H]1c1cccc(Cl)c1` [Example 479, (1S,2S)-2-(3-chlorophenyl)-N-(6-((2R,4S)-2-(6-cyclopropyl-8-(2-oxooxazolidin-3-yl)imidazo[1,2-a]pyridin-2-yl)-4-hydroxypyrrolidin-1-yl)pyrimidin-4-yl)cyclopropane-1-carboxamide], the negative logarithm of the EC50 (pEC50) in assay [1] was 8.00 to 9.00. In addition, the IC90 on plasma kallikrein lay within 1500 to 10000 nM.

In the case of `CN1C(=O)CN(c2cc(C3CC3)cn3cc([C@H]4C[C@H](O)CN4c4cc(NC(=O)[C@H]5C[C@@H]5c5cccc(Cl)c5)ncn4)nc23)C1=O` [Example 480, (1S,2S)-2-(3-chlorophenyl)-N-(6-((2R,4S)-2-(6-cyclopropyl-8-(3-methyl-2,4-dioxoimidazolidin-1-yl)imidazo[1,2-a]pyridin-2-yl)-4-hydroxypyrrolidin-1-yl)pyrimidin-4-yl)cyclopropane-1-carboxamide], the negative logarithm of the EC50 (pEC50) in assay [1] is 8.00 to 9.00. Also, the IC90 at plasma kallikrein was less than 400 nM.

As for `O=C1CN(c2cc(C3CC3)cn3cc(CNc4cc(NC(=O)[C@H]5C[C@@H]5c5cc(Cl)ccn5)nc(O)n4)nc23)C(=O)N1` [Example 487, (1S,2S)-2-(4-chloropyridin-2-yl)-N-(6-(((6-cyclopropyl-8-(2,4-dioxoimidazolidin-1-yl)imidazo[1,2-a]pyridin-2-yl)methyl)amino)-2-hydroxypyrimidin-4-yl)cyclopropane-1-carboxamide], the negative-log EC50 (pEC50) in assay [1] was greater than 9.00. The IC90 on plasma kallikrein was less than 400 nM.

With `CN1CCC(O)(c2cc(C3CC3)cn3cc(CNc4ccnc(NC(=O)[C@H]5C[C@@H]5c5cccc(Cl)c5)c4)nc23)CC1` [Example 488, (1S,2S)-2-(3-chlorophenyl)-N-(4-(((6-cyclopropyl-8-(4-hydroxy-1-methylpiperidin-4-yl)imidazo[1,2-a]pyridin-2-yl)methyl)amino)pyridin-2-yl)cyclopropane-1-carboxamide], the pEC50 in assay [1] is greater than 9.00. On plasma kallikrein, the IC90 fell in the range of 400 to 1500 nM.

In the case of `O=C(Nc1cc(NCc2cn3cc(C4CC4)cc(N4CC(=O)N(CC(F)(F)F)C4=O)c3n2)ccn1)[C@H]1C[C@@H]1c1cccc(Cl)c1` [Example 512, (1S,2S)-2-(3-chlorophenyl)-N-(4-(((6-cyclopropyl-8-(2,4-dioxo-3-(2,2,2-trifluoroethyl)imidazolidin-1-yl)imidazo[1,2-a]pyridin-2-yl)methyl)amino)pyridin-2-yl)cyclopropane-1-carboxamide], the negative logarithm of the EC50 (pEC50) in assay [1] was 8.00 to 9.00. Further, the IC90 on plasma kallikrein fell in the range of 1500 to 10000 nM.

In the case of `O=C(Nc1cc(NCc2cn3cc(C4CC4)cc(N4CC(=O)N(C5CC5)C4=O)c3n2)ccn1)[C@H]1C[C@@H]1c1cccc(Cl)c1` [Example 513, (1S,2S)-2-(3-chlorophenyl)-N-(4-(((6-cyclopropyl-8-(3-cyclopropyl-2,4-dioxoimidazolidin-1-yl)imidazo[1,2-a]pyridin-2-yl)methyl)amino)pyridin-2-yl)cyclopropane-1-carboxamide], the negative-log EC50 (pEC50) in assay [1] was greater than 9.00. The IC90 on plasma kallikrein was in the range of 1500 to 10000 nM.
